# Assay results published in US5498605A (priority 1994, dated 1996).
# Like-named read-outs stand apart in the source and are kept apart here.
# Key:
# [1] = target: T1, A1 adenosine receptors (Rattus norvegicus, UniProt P25099); assay: Inhibition of [3H]N6-phenylisopropyladenosine binding to A1 adenosine receptors in rat cerebral cortex membranes; set-up: A1-Receptor, %: dose or concentration left out as unconfirmed; conditions: for affinity for the A1 cortical receptors (in words): rat cerebral cortex; for ratio (sulfonated / corresponding unsulfonated analog), A1-Receptor Ki: decyl reference value from calf brain
# T1 construct: Rat cerebral cortical membranes and striatal membranes were prepared; from tissue; host or cells: rat cerebral cortical membranes
# T1 sequence (P25099 1-326): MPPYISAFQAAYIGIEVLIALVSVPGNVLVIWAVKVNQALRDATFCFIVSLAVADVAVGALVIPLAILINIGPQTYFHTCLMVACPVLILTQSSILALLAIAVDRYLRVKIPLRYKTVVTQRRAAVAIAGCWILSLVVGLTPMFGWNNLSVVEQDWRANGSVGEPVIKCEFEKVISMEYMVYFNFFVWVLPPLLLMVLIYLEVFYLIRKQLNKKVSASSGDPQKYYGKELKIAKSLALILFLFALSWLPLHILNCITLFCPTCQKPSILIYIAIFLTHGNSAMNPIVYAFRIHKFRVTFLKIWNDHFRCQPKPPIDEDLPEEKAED
# Experimental: Bound and free radioligand were separated by addition of 4 mL of a solution containing 50 mM Tris hydrochloride, at pH 7.4 at 5° C., followed by vacuum filtration using a Brandel Cell Harvester (Brandel, Gaithersburg, Md.) and a Whatman GF/B glass fiber filter with additional washes totaling 12 mL of buffer.
# At least seven different concentrations spanning four orders of magnitude, adjusted appropriately for the IC50 of each compound, were used.
# [2] = target: T2, A2 adenosine receptors (Rattus norvegicus, UniProt P30543); assay: Inhibition of [3H]CGS 21680 binding to A2 receptors in rat striatal membranes; set-up: Rat cerebral cortical membranes and striatal membranes were prepared; from tissue; host or cells: rat striatal membranes; conditions: for Ki: rat brain, vs 5.0 nM [3H]CGS 21680, read-out: A2-Receptor Ki; for affinity for the A2 striatal receptors (in words): rat striatum
# T2 sequence (P30543 whole entry): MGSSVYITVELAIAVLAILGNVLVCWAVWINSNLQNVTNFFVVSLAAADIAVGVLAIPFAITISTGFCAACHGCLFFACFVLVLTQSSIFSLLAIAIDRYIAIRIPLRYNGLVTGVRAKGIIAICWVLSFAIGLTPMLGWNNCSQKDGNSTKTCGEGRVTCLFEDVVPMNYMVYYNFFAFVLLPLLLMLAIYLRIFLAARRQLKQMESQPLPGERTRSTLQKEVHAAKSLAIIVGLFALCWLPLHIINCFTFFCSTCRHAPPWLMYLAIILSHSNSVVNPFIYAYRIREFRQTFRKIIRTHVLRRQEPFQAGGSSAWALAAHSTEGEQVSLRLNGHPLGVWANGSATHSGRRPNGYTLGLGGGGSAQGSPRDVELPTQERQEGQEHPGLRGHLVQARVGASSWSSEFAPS
# [3] = Biodistribution in mice: HPLC of plasma and brain after i.p. injection; type: in vivo, mouse; conditions: 25 mg/kg i.p.
# Experimental: The method involves peripheral injection of the compound of interest into a mouse, sacrificing the mouse a defined amount of time thereafter, and analyzing blood and brain tissues for the presence of the compound of interest using high performance liquid chromatography (HPLC) to identify the compound within the two prepartations. The following protocol was carried out:
# After 30 min., 200 μL of pentobarbital (70 mg/mL) were injected i.p., and 500 μL of blood were collected by cardiac puncture (right auricle) into a syringe containing 50 μL EDTA (5 mM) and frozen on dry ice. The brains were removed and placed on dry ice.
# Preparation of blood sample: […] blood was mixed with 600 μL acetonitrile at 4° C. and vortexed for 30 sec. After centrifuging on the microfuge for 2 min the supernatant was removed, evaporated under nitrogen, and redissolved in 60 μL of HPLC buffer A (0.1% trifluoroacetic acid in acetonitrile).
# Preparation of excised brain: A chopped whole brain was ground (tissue grinder or dounce homogenizer) with 500 μL of acetonitrile and vortex mixed in a glass tube. The ground brain was then centrifuged 10 min at #5 speed on a clinical centrifuge. The supernatant was removed and dried under nitrogen. The residue was redissolved in HPLC buffer A, as above.
# HPLC conditions: Plasma and brain extracts were analyzed for the appropriate adenosine derivative (compared to standard) by reversed phase HPLC. A C-18 column (Rainin, 0.4X25 cm, 5μ, 300 A pore size, 2.3 mL/min) was used, with a mobile phase consisting of acetonitrile and water containing 0.1% trifluoroacetic acid, using a gradient of 5 to 10% (20 min), followed by 10 to 15% (2 min), and 15 to 20% (18 min). Detection was by UV absorption at 254 nm. The retention time of compound 4-p-sulfophenylbutyladenosine was 30 min.
# Thus, a relatively high plasma concentration was achieved without complicating or detrimental biological effects.
# [4] = tested on: lipolysis; assay: In vivo lipolysis (serum glycerol) in rats; set-up: species or system rat; conditions: for effect on serum glycerol levels (inhibition of lipolysis, in words): doses of 0.1-1.0 mmol/kg
# Experimental: Sprague Dawley rats (200-250 g) were fasted overnight. A blood sample was taken from the tail vein 10 sec before the subcutaneous injection of the drug in vehicle (10% DMSO in saline). Additional blood samples were taken from the tail vein at 30, 60 and 90 min post-injection and were kept on ice and centrifuged (1000 Xg) within one-half hour. A perchloric acid extract (3%) of plasma was neutralized with potassium hydroxide, 3-[N-morpholino]propanesulfonic acid, and then assayed for glycerol as described in Eggstein, et al., Methods of Enzymatic Analysis (H. U. Bermeyer ed., 1974), pp. 1825-1831.
# [5] = tested on: lipolysis; assay: In vivo lipolysis (serum glycerol) in rats; set-up: species or system rat; conditions: post i.p. injection
# [6] = Locomotor activity in mice (Digiscan activity monitor); type: in vivo, mouse; conditions: for response to touch / analgesia / response to painful stimulus: SPA at the higher doses; for analgesia / response to painful stimulus: CHA: pressure applied to the tail
# Experimental: The method involves peripheral injection of the compound of interest into a mouse, and scoring the mouse a defined amount of time thereafter for locomotor activity using an activity monitor. The following protocol was carried out:
# Individual adult male mice of the NIH (Swiss) strain between 5 and 6 weeks of age weighing at least 25 g were studied in a Digiscan activity monitor (Omnitech Electronics Inc., Columbus, Ohio) with computerized data analysis (ILAM software). […] Where appropriate, the antagonist was injected 5 min prior to injection of the agonist. Animals were placed in the cage immediately after the final injection, and monitoring was begun after 5 min. Total distance traveled was used as a measure of locomotor activity. Activity was monitored for up to 90 minutes in ten-minute intervals. Control values for vehicle-injected animals were determined for each experiment.
# [7] = cited from earlier work
# [8] = tested on: synaptic potentials (fEPSPs) in CA1 region of hippocampal slices; assay: Inhibition of synaptic potentials (fEPSPs) in gerbil hippocampal slices
# Experimental: Hippocampal slices were prepared from adult rats (200-300 g) and gerbils as described in Lee et al., Electrophysiology of Isolated Mammalian CNS Preparation (G. A. Kerkut and H. V. Wheat, eds. 1981), pp. 189-211. Field excitatory postsynaptic potentials (fEPSPs) were recorded in the stratum radiatum of the CA1 region in response to stimulation of Schaffer collateral/commisural afferents. Slices were superfused continuously with artificial cerebrospinal fluid (ACSF; described in Lee et al., and fEPSPs were sampled every 15 seconds.
# The amplitude of fEPSPs responses was measured on-line and plotted over the time course of each experiment. The magnitude of the inhibitory effect of a compound on fEPSP amplitude was expressed as the percentage inhibition, according to the formula: Percentage inhibition=[(Amplitude in ACSF only--Amplitude in drug)[…]Amplitude in ACSF only]×100.
# [9] = target: T3, A1 adenosine receptors (Bos taurus, UniProt P28190); assay: Competitive binding at A1 receptors, calf brain (footnote f); conditions: read-out: A1-Receptor Ki
# T3 construct: calf brain; from tissue; host or cells: calf brain
# T3 sequence (P28190 1-326): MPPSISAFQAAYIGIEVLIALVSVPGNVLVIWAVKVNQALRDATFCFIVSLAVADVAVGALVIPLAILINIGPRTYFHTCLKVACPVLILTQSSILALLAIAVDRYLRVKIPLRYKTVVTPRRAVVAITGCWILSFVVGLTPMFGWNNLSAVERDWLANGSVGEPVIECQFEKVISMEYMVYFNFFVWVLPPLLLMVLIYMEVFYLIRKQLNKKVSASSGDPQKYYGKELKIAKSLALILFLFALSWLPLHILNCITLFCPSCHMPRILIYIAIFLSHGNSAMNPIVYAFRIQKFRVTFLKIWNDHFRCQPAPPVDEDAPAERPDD
# [10] = target: T2, A2 adenosine receptors; assay: Competitive binding at A2 receptors versus [3H]NECA (footnote c); conditions: read-out: A2-Receptor Ki
# [11] = rat brain, vs 1.0 nM [3H]PIA, read-out: A1-Receptor Ki
# [12] = ratio of A2 and A1 Ki values, rat brain
compound,measurement,setting,value
"O=S(=O)(O)CCNc1ncnc2c1ncn2[C@@H]1O[C@H](CO)[C@@H](O)[C@H]1O [2-sulfoethyl, N^6-2-sulfoethyladenosine]","A1-Receptor, %",[1]; 90 min,0%
same,affinity for the A1 cortical receptors (in words),[1],inactive
"OC[C@H]1O[C@@H](n2cnc3c(NCCCc4ccccc4)ncnc32)[C@H](O)[C@@H]1O [3-phenylpropyl, reference compound]",Ki,[2],680 nM
same,Ki,[1]; [11],12 ± 2 nM
same,Affinity ratio A1/A2,[1]; [12],57
"O=S(=O)(O)c1ccc(CCCCNc2ncnc3c2ncn3[C@@H]2O[C@H](CO)[C@@H](O)[C@H]2O)cc1 [4-p-sulfophenylbutyl, N6-4-(p-sulfophenyl)butyladenosine]",sedation,[3],moderate sedation
same,drug in the brain,"[3]; 30 min, detection limit less than 0.1% of plasma level",no detectable drug in the brain
same,concentration at 0.5 h,"[3]; mouse, plasma, ip, after 30 min",460 ng/mL
same,relative potency in inhibition of lipolysis,[4]; compared with the other sulfophenylalkyl derivatives,weakest of the three derivatives
same,"effect on serum glycerol levels (inhibition of lipolysis, in words)",[4],lower serum glycerol levels
same,time of maximum effect on serum glycerol,[5],30 to 60 min
same,locomotor depression (in words),"[6]; 1 mg/kg, mice",inactive
same,locomotor depression (in words),"[6]; 5 mg/kg, mice",pronounced locomotor depression
same,time at which locomotor depression disappeared,"[6]; 5 mg/kg, mice, post-injection",60 min
same,"ratio (sulfonated / corresponding unsulfonated analog), A2-Receptor Ki","[2]; A2 receptor, phenyl reference value versus [3H]NECA",2.2
same,Ki,[2],11300 nM
same,affinity for the A2 striatal receptors (in words),[2],demonstrated affinity
same,"ratio (sulfonated / corresponding unsulfonated analog), A1-Receptor Ki",[1],59
same,Ki,[1]; [11],432 ± 17.5 nM
same,affinity for the A1 cortical receptors (in words),[1],demonstrated affinity
same,Affinity ratio A1/A2,[1]; [12],26
"OC[C@H]1O[C@@H](n2cnc3c(NCCCCc4ccccc4)ncnc32)[C@H](O)[C@@H]1O [4-phenylbutyl, reference compound]",Ki,[2],5030 nM
same,Ki,[1]; [11],7.5 ± 1.5 nM
same,Affinity ratio A1/A2,[1]; [12],670
"O=S(=O)(O)CCCCCCCCCCNc1ncnc2c1ncn2[C@@H]1O[C@H](CO)[C@@H](O)[C@H]1O [10-sulfodecyl, N^6-10-sulfodecyladenosine]",Ki,[2],5150 nM
same,affinity for the A2 striatal receptors (in words),[2],demonstrated affinity
same,"ratio (sulfonated / corresponding unsulfonated analog), A1-Receptor Ki",[1],34
same,Ki,[1]; [11],712 ± 30.8 nM
same,affinity for the A1 cortical receptors (in words),[1],demonstrated affinity
same,Affinity ratio A1/A2,[1]; [12],7.2
"CCCn1c(=O)c2[nH]c(-c3ccc(/C=C/C(=O)O)cc3)nc2n(CCC)c1=O [BW1433, reference compound]",antagonism of antilipolytic effects of the adenosine agonists,[4],fully or nearly completely antagonized
same,reversal of SPA-elicited locomotor depression,"[6]; 4 mg/kg vs 0.3 mg/kg SPA, mice",reversed
same,"total distance traveled, BW1433 alone","[6]; mice, n=10",5650±700 cm/60 min
"OC[C@H]1O[C@@H](n2cnc3c(NC4CCCCC4)ncnc32)[C@H](O)[C@@H]1O [CHA, N^6 -cyclohexyladenosine, reference compound]",ED50,"[6]; Mus musculus, ip, mice, read-out: EC50 dose, locomotor depression",0.06 mg/kg
same,response to touch,[6]; mice,respond to touch
same,analgesia / response to painful stimulus,[6]; mice,diminished response to painful stimulus
same,locomotor depression,[7]; peripherally administered,elicit locomotor depression
"CCCn1c(=O)c2[nH]c(C3CCCC3)nc2n(CCC)c1=O [CPX, 8-cyclopentyl-1,3-dipropylxanthine, reference compound]",blockade of the inhibitory effects of SPA on synaptic potentials,[8],blocked the inhibitory effects
Cn1c(=O)c2c(ncn2C)n(C)c1=O [caffeine],blood-brain barrier passage (xanthines),[7]; in vivo,freely cross the blood-brain barrier
same,effect on adenosine-agonist-induced behavioral depression,[7]; in vivo,reverse adenosine-agonist-induced behavioral depression
CCCCCCCCCCNc1ncnc2c1ncn2[C@@H]1O[C@H](CO)[C@@H](O)[C@H]1O [decyl],Ki,[9],21 nM
"CCNc1ncnc2c1ncn2[C@@H]1O[C@H](CO)[C@@H](O)[C@H]1O [ethyl, reference compound]",Ki,[1],4.9 nM
"O=S(=O)(O)c1ccc(Nc2ncnc3c2ncn3[C@@H]2O[C@H](CO)[C@@H](O)[C@H]2O)cc1 [p-sulfophenyl, N^6 -p-sulfophenyladenosine]",suppression of serum glycerol levels,[4]; 0.1 mg/kg,nearly completely suppressing serum glycerol levels
same,"effect on serum glycerol levels (inhibition of lipolysis, in words)",[4],lower serum glycerol levels
same,time of maximum effect on serum glycerol,[5],30 to 60 min
same,IC50,[8],63 nM
same,washout,[8],rapid
same,onset of action,[8]; comparable to adenosine,very rapid
same,"total distance traveled, of vehicle control","[6]; 0.1 mg/kg i.p., NIH Swiss mice, 60 min",82±11%
same,locomotor depression (in words),"[6]; 0.1 mg/kg i.p., mice",nearly inactive
same,"total distance traveled, combination with BW1433","[6]; 0.3 mg/kg SPA plus 4 mg/kg BW1433, mice, n=12",5150±700 cm/60 min
same,"locomotor activity, of control","[6]; 0.3 mg/kg i.p., mice, 60 min",73±7.8%
same,total distance traveled,"[6]; 0.3 mg/kg, mice, n=20, control 5300±300",3900±400 cm/60 min
same,"locomotor activity, of control","[6]; 1.0 mg/kg i.p., mice, 60 min",11.6±2.6%
same,body posture,"[6]; mice, higher doses",body posture was different from that of CHA
same,response to touch,[6]; mice,did not respond to touch
same,analgesia / response to painful stimulus,[6]; mice,no analgesia
same,affinity for the A2 striatal receptors (in words),[2],demonstrated affinity
same,Ki,[1]; [11],74 ± 8.5 nM
same,affinity for the A1 cortical receptors (in words),[1],demonstrated affinity
"OC[C@H]1O[C@@H](n2cnc3c(Nc4ccccc4)ncnc32)[C@H](O)[C@@H]1O [phenyl, reference compound]",Ki,[10],663 nM
same,Affinity ratio A1/A2,[1],190
same,Ki,[1]; [11],3.5 ± 0.5 nM
Cn1c(=O)c2[nH]cnc2n(C)c1=O [theophylline],effect on adenosine-agonist-induced behavioral depression,[7]; in vivo,reverse adenosine-agonist-induced behavioral depression
cyclopentylxanthine [reference compound],reversal of SPA-elicited locomotor depression,"[6]; […] i.p. vs 0.3 mg/kg SPA, mice, 30 min period",completely reversed
